From patent US20250313544A1, “INHIBITORS OF GLUTATHIONE S-TRANSFERASE ZETA 1 (GSTZ1) AND METHODS OF USE” (H. LEE MOFFITT CANCER CENTER AND RESEARCH INSTITUTE, INC., priority 2022, published 2025)

Columns and labels:
[1] = system: drug-refractory NSCLC cells (H1792, H520, HCC366); experiment: Cell viability assay (CellTiter-Glo) across drug-refractory NSCLC cell lines; assay type: cell-based, human
Method: (§1) Cells were seeded in Corning 384-well black walled/clear bottom microplates with a density of 1,000 cells/well and treated with indicated drugs and concentrations following cell attachment for 24 h. After 72 h or 96 h, as indicated, cell viability was evaluated with CellTiter-Glo (Promega, Madison, WI) according to manufacturer's recommendations. An M5 Spectramax plate reader (Molecular devices) was used to read the plates with 500 ms integration. Data was processed and analyzed using Excel and GraphPad Prism 9.0.

[2] = system: H520 cells harboring amplified FGFR1; experiment: Cell viability assay (CellTiter-Glo) in H520 cells; assay type: cell-based, human; conditions: probe combined with infigratinib in H520 cells, dose of 5 μM (FIG. 9E)
Method: as §1

[3] = biological target: T1, GSTZ1 (Homo sapiens, UniProt O43708); experiment: GSTZ1 enzymatic activity assay (CNBF-GSH adduct absorbance at 420 nm); assay type: biochemical; design: dose or concentration left out as unconfirmed; conditions: without UV irradiation, 10 mins, room temperature
T1 sequence (O43708 1-216): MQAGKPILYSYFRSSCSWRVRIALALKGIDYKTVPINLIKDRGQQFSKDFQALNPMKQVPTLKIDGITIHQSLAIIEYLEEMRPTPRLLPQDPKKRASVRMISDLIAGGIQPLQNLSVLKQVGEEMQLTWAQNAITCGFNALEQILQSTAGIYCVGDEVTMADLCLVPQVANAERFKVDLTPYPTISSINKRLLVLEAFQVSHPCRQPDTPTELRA
Method: The GSTZ1 activity assay with its substrate 4-Chloro-7-nitrobenzofurazan (CNBF) was read at 420 nm, which indicates the absorbance of CNBF-GSH adducts as previously reported^61. For experiments without UV irradiation, the reaction was started by adding DMSO or probe 17, 10 μg of recombinant GSTZ1 proteins, 0.2 mM of CNBF, and 2 mM of GSH at room temperature in a final volume of 100 μl HEPES buffer at pH 5.5. For UV irradiation experiments, GSTZ1 protein was incubated with DMSO or probe 17 for 10 minutes under UV light. Each reaction was performed as at least two biological replicates. Spectrophotometry measurements were recorded using an M5 Spectramax plate reader (Molecular devices). Data was processed and analyzed using Excel and GraphPad Prism 9.0. Optical density (OD) readouts of GSTZ1-catalyzed reactions were corrected by subtracting measurements of non-enzymatic reactions. Relative GSTZ1 activity was calculated by normalizing corrected OD readouts of GSTZ1-catalyzed reactions with probe 17 to that of GSTZ1-catalyzed reactions without probe 17. For assays with UV irradiation, recombinant GSTZ1 was produced in-house. To this end, 6His-GFP tag full length human GSTZ1 (Uniprot ID: 043708) with TEV protease cleavage site in pET28-a-(+) vector (GeneScript) was transformed into BL21 DE3 cells (Cat #EC0114, ThermoFisher). […]

## C#CCCC1(CCC(=O)N2CCC(COc3nc4ccccc4nc3C)CC2)N=N1 [Probe 17, 3-(3-(but-3-yn-1-yl)-3H-diazirin-3-yl)-1-(4-(((3-methylquinoxalin-2-yl)oxy)methyl)piperidin-1-yl)propan-1-one]
[1]
  single agent activity (cell viability): moderate single agent activity
[1]; single agent
  cellular activity of probes (cell viability): displayed activity toward multiple tested cell lines
  relative potency among active probes (cell viability): more potent
[2]
  sensitization of cells towards infigratinib: significantly enhanced the sensitivity
[3]
  GSTZ1 activity reduced by: 68%
